Source: PubChem BioAssay (NCI)
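Five compound concentrations were applied to cells in 96-well plates for 48 hours; endpoints were derived by simple linear interpolation of the resulting dose-response curve. Abbreviation: GI50, concentration required for 50% inhibition of growth. At the TGI there is no net growth.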

Tests used:
Assay in all cases: NCI-60 cell line screen, 48 h
[1] = system: MCF7 breast
[2] = system: OVCAR-5 ovarian
[3] = system: NCI-H460 lung
[4] = system: KM12 colon
[5] = system: NCI-H23 lung
[6] = system: A549 NSCLC
[7] = system: OVCAR-4 ovarian
[8] = system: RPMI-8226 leukemia
[9] = system: UACC-62 melanoma
[10] = system: A498 renal

| Structure (SMILES) | GI50 [1] [nM] | TGI [1] [µM] | GI50 [2] [nM] | TGI [2] [µM] | GI50 [3] [µM] | TGI [3] [µM] | GI50 [4] [nM] | TGI [4] [µM] | GI50 [5] [µM] | TGI [5] [µM] | GI50 [6] [nM] | TGI [6] [µM] | GI50 [7] [µM] | TGI [7] [µM] | GI50 [8] [µM] | TGI [8] [µM] | GI50 [9] [nM] | TGI [9] [µM] | GI50 [10] [nM] | TGI [10] [µM] |
| --- | --- | --- | --- | --- | --- | --- | --- | --- | --- | --- | --- | --- | --- | --- | --- | --- | --- | --- | --- | --- |
| CN(C)c1ccc2c(c1)OC(N)=C(C#N)C2c1ccc2c(c1)CCO2 (centres undefined) | < 21.1 | 32.3 | 1130 | > 100 | < 0.0231 | 18.3 | < 30.9 | > 42 | 0.362 | > 100 | 198 | > 100 | 0.704 | > 100 | 0.48 | 28.3 | < 20.5 | 21.9 | < 27.2 | 5.59 |
| COc1ccc(C(=O)c2cc3c(N)c(C(=O)Nc4cccc5ccccc45)sc3nc2C)cc1 | 191 | > 50 | 285 | > 50 | 0.18 | > 22.5 | 215 | > 50 | 0.334 | > 50 | 266 | > 50 | 1.15 | > 50 | 0.184 |  | 285 | > 50 | 119 | 0.764 |
| C1CN(SSN2CCOCC2)CCO1 | 23300 | 64.4 | 39000 | > 100 | 28.3 | > 100 | 43600 | > 100 | 22.5 | 55.9 | 78600 | > 100 | 39.6 | > 100 | 27.4 | > 100 | 58700 | > 100 | > 100000 | > 100 |
| CCc1ccc(NC(=O)COC(=O)c2cc([N+](=O)[O-])ccc2Sc2nnnn2C)cc1 | 20100 | 60.6 | 17200 | 76 | 13 | 33.3 | 19600 | > 100 | 9.79 | 34.6 | 19700 | 53.1 | 12.9 | 26.9 | 6.73 | 41.4 | 15200 | 48 | 21500 | 74.9 |
| O=c1nc2oc3ccc4ccccc4c3cc-2s1 | 485 | > 100 | > 100000 | > 100 | 4.93 | > 100 | 961 | > 100 | 28.7 | > 100 | > 92700 | > 100 | 58.4 | > 100 | 50.9 | > 100 | 1220 | > 100 | 184 | 7.86 |
| CCCCN(CCCC)c1ccc(C(=N)c2ccc(N(CCCC)CCCC)cc2)cc1 | 389 | 1.44 | 880 | 2.31 | 0.773 | 2.13 | 334 | 1.25 | 0.292 | 1.06 | 720 | 2.07 | 0.373 | 1.4 | 0.396 | 1.88 | 369 | 1.5 | 1240 | 2.56 |
